Measured values from ChEMBL document CHEMBL1201862, “PubChem BioAssay data set” (2004).
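How tested: cells in 96-well plates exposed to compound for 48 hours at five concentrations. GI50 = concentration required for 50% inhibition of growth.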 Activity calls are given as the source filed them. Rule as the data show it: active = GI50 up to about 1.1 µM and inactive = higher.

Legend:
Assay in all cases: NCI-60 cell line screen, 48 h
DU-145 = system: DU-145
HCC 2998 = system: HCC 2998
K562 = system: K562
KM12 = system: KM12
LOX IMVI = system: LOX IMVI
MDA-MB-231 = system: MDA-MB-231
MDA-N = system: MDA-N
MOLT-4 = system: MOLT-4
NCI-H226 = system: NCI-H226
OVCAR-4 = system: OVCAR-4
OVCAR-5 = system: OVCAR-5
RPMI-8226 = system: RPMI-8226
RXF 393 = system: RXF 393
SNB-75 = system: SNB-75
SW-620 = system: SW-620
U-251 = system: U-251
UACC-62 = system: UACC-62
NCI/ADR-RES = system: NCI/ADR-RES
SK-OV-3 = system: SK-OV-3
HCT-116 = system: HCT-116

Measured: GI50

CC(=O)c1sc2c(c1O)c(=O)n(-c1ccccc1)c(=S)n2-c1ccccc1
inactive: DU-145 > 100 µM | HCC 2998 > 100 µM | K562 > 100 µM | KM12 > 100 µM | LOX IMVI > 100 µM | MDA-MB-231 > 100 µM | MDA-N > 100 µM | MOLT-4 > 100 µM | NCI-H226 > 100 µM | OVCAR-4 > 100 µM | OVCAR-5 > 100 µM | RPMI-8226 > 100 µM | RXF 393 > 100 µM | SNB-75 58.7 µM | SW-620 > 100 µM | U-251 > 100 µM | UACC-62 > 100 µM

Cc1oc2c(c1C)S(=O)(=O)C(C#N)=C(c1ccccc1)N2
inactive: DU-145 > 100 µM | HCC 2998 > 100 µM | K562 > 100 µM | KM12 > 100 µM | LOX IMVI > 100 µM | MDA-MB-231 > 100 µM | MDA-N > 100 µM | MOLT-4 > 100 µM | NCI-H226 > 100 µM | NCI/ADR-RES > 100 µM | OVCAR-4 > 100 µM | OVCAR-5 > 100 µM | RPMI-8226 > 100 µM | SK-OV-3 > 100 µM | SNB-75 > 100 µM | SW-620 > 100 µM | U-251 > 100 µM | UACC-62 > 100 µM

CC(C(=O)c1ccccc1)C1(O)C(=O)Nc2ccccc21 (configuration not stated)
inactive: HCC 2998 > 100 µM | HCT-116 > 100 µM | K562 > 100 µM | KM12 > 100 µM | LOX IMVI > 100 µM | MOLT-4 > 100 µM | NCI-H226 > 100 µM | OVCAR-4 > 100 µM | OVCAR-5 > 100 µM | RPMI-8226 > 100 µM | RXF 393 > 100 µM | SK-OV-3 > 100 µM | SNB-75 > 100 µM | SW-620 > 100 µM | U-251 > 100 µM | UACC-62 > 100 µM

Cc1ccc(C(=O)NCc2ccccc2)cc1/N=N/N(C)C
inactive: DU-145 > 100 µM | HCC 2998 > 100 µM | HCT-116 > 72.1 µM | K562 > 100 µM | KM12 64.4 µM | LOX IMVI 58.1 µM | MDA-MB-231 > 100 µM | MDA-N > 100 µM | MOLT-4 56.8 µM | NCI-H226 > 100 µM | NCI/ADR-RES 86.3 µM | OVCAR-4 > 76.2 µM | OVCAR-5 > 100 µM | RPMI-8226 40.9 µM | SK-OV-3 > 100 µM | SW-620 > 100 µM | U-251 > 100 µM | UACC-62 > 100 µM

O=S(=O)(c1ccccc1)n1c(C(O)c2ccccc2)cc2ccccc21 (configuration not stated)
inactive: DU-145 33.9 µM | HCC 2998 17.5 µM | HCT-116 16.5 µM | K562 49.4 µM | KM12 15 µM | LOX IMVI 30.1 µM | MDA-MB-231 17.3 µM | MOLT-4 36.4 µM | NCI-H226 13.1 µM | NCI/ADR-RES 13.1 µM | OVCAR-4 18.1 µM | OVCAR-5 15.7 µM | RPMI-8226 > 100 µM | RXF 393 14.3 µM | SK-OV-3 15 µM | SNB-75 14.7 µM | SW-620 24 µM | U-251 16.7 µM | UACC-62 12.9 µM

CC(=O)NC(CCCCN)C(=O)NCc1ccccc1 (configuration not stated)
inactive: HCC 2998 > 100 µM | HCT-116 > 100 µM | K562 > 100 µM | KM12 > 100 µM | LOX IMVI > 100 µM | MOLT-4 > 100 µM | NCI-H226 > 100 µM | OVCAR-4 > 100 µM | OVCAR-5 > 100 µM | RPMI-8226 > 100 µM | RXF 393 > 100 µM | SK-OV-3 > 100 µM | SNB-75 88.1 µM | SW-620 > 100 µM | U-251 > 100 µM | UACC-62 > 100 µM

CCC12CCCN3CCc4c(n(c5ccccc45)C(O)(C(=O)OC)C1)C32 (configuration not stated)
inactive: DU-145 > 100 µM | HCC 2998 > 100 µM | HCT-116 > 100 µM | KM12 > 100 µM | LOX IMVI > 100 µM | MDA-MB-231 > 100 µM | MDA-N > 100 µM | MOLT-4 > 100 µM | NCI-H226 > 100 µM | NCI/ADR-RES > 100 µM | OVCAR-4 > 100 µM | OVCAR-5 > 100 µM | RPMI-8226 > 100 µM | SK-OV-3 > 100 µM | SNB-75 > 100 µM | SW-620 > 100 µM | U-251 > 100 µM | UACC-62 > 100 µM
